Data published in US4212939A, “Substrate solution for carboxylic ester hydrolase determination” (The University of Alabama, priority 1977, dated 1980).
Blank lines part the entries; values can stand above or below the compound they belong to.

Tests used:
[1] = target: T1, crude human pancreas extract (human lipase) (Homo sapiens, UniProt P16233); test: Activation of ester hydrolase in the vinyl ester reagent system (ADH/NADH coupled, 340 nm); type: biochemical; conditions: for activation of crude human pancreas extract by quaternary ammonium compound: in the absence of bile salts
T1 construct: vinyl ester hydrolysis coupled to ADH/NADH
T1 sequence (P16233 17-465): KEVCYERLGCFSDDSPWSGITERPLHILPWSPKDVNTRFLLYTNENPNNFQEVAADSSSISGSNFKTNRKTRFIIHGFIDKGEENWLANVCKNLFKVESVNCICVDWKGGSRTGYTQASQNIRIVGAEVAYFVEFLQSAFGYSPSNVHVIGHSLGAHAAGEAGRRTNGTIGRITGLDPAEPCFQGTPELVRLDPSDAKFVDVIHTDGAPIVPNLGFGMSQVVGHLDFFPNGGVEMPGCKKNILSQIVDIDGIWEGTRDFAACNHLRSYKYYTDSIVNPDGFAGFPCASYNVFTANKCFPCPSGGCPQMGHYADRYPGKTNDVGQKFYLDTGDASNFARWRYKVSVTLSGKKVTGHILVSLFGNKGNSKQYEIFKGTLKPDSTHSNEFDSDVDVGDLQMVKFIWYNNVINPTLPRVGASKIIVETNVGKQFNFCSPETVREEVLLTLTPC

[2] = target: T2, porcine pancreatic lipase (Sus scrofa, UniProt P00591); test: as above; type: biochemical; conditions: for activation of porcine pancreatic lipase by quaternary ammonium compound: in the absence of bile salts; for activation of porcine pancreatic lipase by bile salt: vinyl omega-phenyl octanoate as substrate, sodium taurodeoxycholate zero to 25 mM, sodium cholate zero to 10 mM, sodium chenodeoxycholate zero to 15 mM
T2 sequence (P00591 1-450): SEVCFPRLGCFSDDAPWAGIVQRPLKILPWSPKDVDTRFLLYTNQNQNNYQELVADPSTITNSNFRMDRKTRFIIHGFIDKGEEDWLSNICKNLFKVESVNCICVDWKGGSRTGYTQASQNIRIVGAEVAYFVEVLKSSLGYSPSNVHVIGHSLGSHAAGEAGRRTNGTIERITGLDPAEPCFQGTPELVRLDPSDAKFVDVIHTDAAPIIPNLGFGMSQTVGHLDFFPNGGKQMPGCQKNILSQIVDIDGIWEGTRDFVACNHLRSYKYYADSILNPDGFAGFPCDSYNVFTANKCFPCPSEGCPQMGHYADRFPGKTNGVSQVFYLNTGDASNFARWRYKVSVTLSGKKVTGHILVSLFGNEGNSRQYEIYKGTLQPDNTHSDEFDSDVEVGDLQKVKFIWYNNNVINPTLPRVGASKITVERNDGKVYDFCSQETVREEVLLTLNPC
Excerpt: (§1) In accordance with the preferred embodiments of this invention, we prefer to carry out the analysis of carboxylic acid ester hydrolase by admixing an unknown, suspected of containing this enzyme with a reagent system wherein first a vinyl ester of a carboxylic acid is hydrolyzed by the enzyme into the carboxylic acid and unstable vinyl alcohol. As a second step, the vinyl alcohol isomerizes to acetaldehyde. This sequence of conversions is indicated diagrammatically as follows: [drawing 1] The acetaldehyde of reaction (2) may be detected by a variety of means known to the prior art. For example, enzymatic methods are illustrated below in reactions (3a) and (3b), and involve monitoring the disappearance (3a) or appearance (3b) of NADH by measuring its absorbance or fluorescence at suitable wavelengths. The velocity of reactions (3a) or (3b) may then be equated with reaction (1) when the components of the mixture are all in sufficient excess so that only the ester hydrolase activity is limiting. Chemical methods (3c) may include any nonenzymatic means for the quantitative analysis of acetaldehyde. [formula]
(§2) The range of concentrations of sodium deoxycholate (or its free acid) is from zero to about 25 mM, but the preferred range is about 15 to 21 mM for porcine pancreatic lipase, crude human pancreas extract, and lipase in human blood serum.
Activation of porcine pancreatic lipase and crude human pancreas extract can also be accomplished with various cationic alkyl and alkyl-aryl quaternary ammonium compounds such as cetyltrimethyl ammonium bromide (CTAB) and cetyldimethylbenzyl ammonium chloride (CDMBAC) in the absence of bile salts. The useful range of CTAB concentrations for activation of porcine pancreatic lipase is from about 4 to 12 mM, but most preferred is from 7 to 9 mM. The useful range of CDMBAC concentrations for activation of porcine pancreatic lipase is from about 2 to 9 mM, but most preferred is about 5 to 9 mM. When used together sodium deoxycholate (or its acid) and either CTAB or CDMBAC activate porcine pancreatic lipase about 10 fold over the activity without these components together. Sodium deoxycholate and CTAB are useful when used together in the ranges of zero to 25 mM and zero to 15 mM, respectively, but the preferred concentrations are 10 mM to 20 mM sodium deoxycholate and 4 mM to 10 mM CTAB. When deoxycholate and CDMBAC are used together for the activation of porcine pancreatic lipase the useful concentrations of deoxycholate are from zero to about 20 mM, but the preferred concentrations are 10 mM to 20 mM deoxycholate and 10 mM to 15 mM CDMBAC.
(2) Buffer Solution. While the method of preparation of the buffer solution is not critical, one method for forming it is as follows: Weigh into a one liter beaker 3.134 gm 1, 1, 3, 3-tetramethyl-1-phenoxy (polyethoxy) butane (n=polydisperse, average 9) and 12.912 gm 1, 1, 3, 3-tetramethyl-1-phenoxy(polyethoxy)n butane, 70% (n=polydisperse, average 30). Add about 800 ml of deionized or glass redistilled water and stir with a magnetic stirring bar until the detergents are dissolved. Add 9.534 gm sodium deoxycholate and continue stirring until dissolved. Then add 25.652 gm tetrasodium pyrophosphate (Na4 P2 O7.10 H2 O) and stir until the crystals dissolve. Add with stirring in approximately five equal portions a total of 231.51 gm of potassium chloride, allowing each portion to almost completely dissolve before adding the next. Stop the stirring when all of the KCl has dissolved. […]

[3] = tested on: porcine liver esterase; test: as above; type: biochemical; conditions: for activation of porcine liver esterase by bile salt: vinyl omega-phenyl octanoate as substrate, sodium taurodeoxycholate zero to 25 mM, sodium cholate zero to 10 mM, sodium chenodeoxycholate zero to 15 mM
Excerpt: as §1, §2
(2) Buffer Solution. While the method of preparation of the buffer solution is not critical, one method for forming it is as follows: Weigh into a one liter beaker 3.134 gm 1, 1, 3, 3-tetramethyl-1-phenoxy (polyethoxy) butane (n=polydisperse, average 9) and 12.912 gm 1, 1, 3, 3-tetramethyl-1-phenoxy(polyethoxy)n butane, 70% (n=polydisperse, average 30). Add about 800 ml of deionized or glass redistilled water and stir with a magnetic stirring bar until the detergents are dissolved. Add 9.534 gm sodium deoxycholate and continue stirring until dissolved. Then add 25.652 gm tetrasodium pyrophosphate (Na4 P2 O7.10 H2 O) and stir until the crystals dissolve. Add with stirring in approximately five equal portions a total of 231.51 gm of potassium chloride, allowing each portion to almost completely dissolve before adding the next. Stop the stirring when all of the KCl has dissolved. Add 1.15 gm bovine serum albumin by sprinkling on the liquid surface. When all of the BSA has dissolved, begin stirring again and add more water to bring the volume up to about 950 ml. Adjust the pH to 9.1 with dilute HCl solution. […] Quantitatively transfer the solution to a one liter volumetric flask and add water to the mark. […] After any endogenous acetaldehyde in the reagent has been reduced and the corresponding oxidation of NADH has slowed to the normal blank rate, the absorbance at 340 nm in a 1 cm light path will be approximately 1.5. […]

[4] = target: T2, porcine pancreatic lipase; conditions: same conditions as glycerol trioleate; cited from earlier work

Structure (SMILES): CCCCCCCCCCCCCCCC[N+](C)(C)Cc1ccccc1.[Cl-] [CDMBAC, cetyldimethylbenzyl ammonium chloride]
- activation of crude human pancreas extract by quaternary ammonium compound [1]: Activation
- activation of porcine pancreatic lipase by quaternary ammonium compound [2]: Activation

Structure (SMILES): CCCCCCCCCCCCCCCC[N+](C)(C)C.[Br-] [CTAB, cetyltrimethyl ammonium bromide]
- activation of crude human pancreas extract by quaternary ammonium compound [1]: Activation
- activation of porcine pancreatic lipase by quaternary ammonium compound [2]: Activation

- activation of porcine liver esterase by bile salt [3]: slightly activate
- activation of porcine pancreatic lipase by bile salt [2]: slightly activate
Structure (SMILES): C[C@H](CCC(=O)NCCS(=O)(=O)O)[C@H]1CC[C@H]2[C@@H]3CC[C@@H]4C[C@H](O)CC[C@]4(C)[C@H]3C[C@H](O)[C@]12C [Sodium taurodeoxycholate, sodium taurodeoxycholate]

Structure (SMILES): C[C@H](CCC(=O)O)[C@H]1CC[C@H]2[C@@H]3[C@H](O)C[C@@H]4C[C@H](O)CC[C@]4(C)[C@H]3CC[C@]12C [sodium chenodeoxycholate]
- activation of porcine liver esterase by bile salt [3]: slightly activate
- activation of porcine pancreatic lipase by bile salt [2]: slightly activate

Structure (SMILES): C[C@H](CCC(=O)O)[C@H]1CC[C@H]2[C@@H]3[C@H](O)C[C@@H]4C[C@H](O)CC[C@]4(C)[C@H]3C[C@H](O)[C@]12C [sodium cholate]
- activation of porcine liver esterase by bile salt [3]: slightly activate
- activation of porcine pancreatic lipase by bile salt [2]: slightly activate

Structure (SMILES): C[C@H](CCC(=O)O)[C@H]1CC[C@H]2[C@@H]3CC[C@@H]4C[C@H](O)CC[C@]4(C)[C@H]3C[C@H](O)[C@]12C [sodium deoxycholate]
- activation of porcine liver esterase by sodium deoxycholate ([3]; concentrations up to about 25 mM): only slightly activated
- activation of human lipase by deoxycholate alone compared with the combination with CDMBAC ([1]; deoxycholate concentration about above 4 mM, in the absence of CDMBAC): activated to a much greater extent

Structure (SMILES): C=COC(=O)CCCCCCC/C=C\CCCCCCCC [vinyl oleate]
- effectiveness as substrate relative to glycerol trioleate [4]: 29.4%
